The source of these data is patent US12655130B2 (ASSEMBLY BIOSCIENCES, INC., priority 2020, dated 2026).

In the first experiment the test system is HBV viral load (viral production from HepAD38 cells). The experiment can be described thus: Activity of test compounds on viral production from HepAD38 cells (viral load by qPCR of HBV core sequence). Type of experiment: cell-based. As to conditions: Hepatitis B virus, HePAD38, 120 h, viral load lowering, 5 days, qPCR of supernatant, read-out: VL HepAD38 EC50 range. The procedure, abridged:
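EC50 and CC50 come from four-parameter logistic fits: HBV core DNA in supernatant by TaqMan qPCR against DNA standards, normalised to DMSO controls, and cell viability by CellTiter-Glo. Cells were plated at 50,000/well without tetracycline (2% FBS) and exposed to compounds (highest 10 μM) for 5 days, 37 °C.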
A general note: In qPCR the cycle at which signal appears reflects the starting amount.
Usually EC50 stands for the concentration giving half of the maximal effect. For `Cn1cc(C2(O)CC3CC(c4ncn(C)c4C(=O)Nc4ccc(F)c(Cl)c4)CC3C2)c(C(O)C(F)(F)F)n1` (centres unmarked) [Example 191, N-(3-Chloro-4-fluorophenyl)-4-(5-hydroxy-5-(1-methyl-3-(2,2,2-trifluoro-1-hydroxyethyl)-1H-pyrazol-4-yl)octahydropentalen-2-yl)-1-methyl-1H-imidazole-5-carboxamide], the EC50 lay within 0.05 to 0.5 µM.

Turning to `Cn1cnc(C2CC3CC(O)(Cn4ccc(Cl)n4)CC3C2)c1C(=O)Nc1ccc(F)c(Cl)c1` (centres unmarked) [Example 101, 4-(5-((3-Chloro-1H-pyrazol-1-yl)methyl)-5-hydroxyoctahydropentalen-2-yl)-N-(3-chloro-4-fluorophenyl)-1-methyl-1H-imidazole-5-carboxamide], the EC50 is less than 0.01 µM.

As for `O=C(Nc1ccc(F)c(Cl)c1)c1c(C2CC3CC(O)(C(F)(F)F)CC3C2)nc2n1CCC2` (single isomer, unassigned) [Example 34, N-(3-Chloro-4-fluorophenyl)-2-(5-hydroxy-5-(trifluoromethyl)octahydropentalen-2-yl)-6,7-dihydro-5H-pyrrolo[1,2-a]imidazole-3-carboxamide], the EC50 is 0.01 to 0.05 µM.

Take `CC(O)COc1cc(C2(O)CC3CC(c4ncn(C)c4C(=O)Nc4ccc(F)c(Cl)c4)CC3C2)n(C)n1` (centres unmarked) [Example 208, N-(3-Chloro-4-fluorophenyl)-4-(5-hydroxy-5-(3-(2-hydroxypropoxy)-1-methyl-1H-pyrazol-5-yl)octahydropentalen-2-yl)-1-methyl-1H-imidazole-5-carboxamide]: the EC50 is less than 0.01 µM.

In the case of `CN(C)c1ccn(CC2(O)CC3CC(c4ncn(C)c4C(=O)Nc4ccc(F)c(Cl)c4)CC3C2)n1` (centres unmarked) [Example 96, N-(3-chloro-4-fluorophenyl)-4-(5-((3-(dimethylamino)-1H-pyrazol-1-yl)methyl)-5-hydroxyoctahydropentalen-2-yl)-1-methyl-1H-imidazole-5-carboxamide], the half-maximal effective concentration (EC50) is less than 0.01 µM.

In the case of `Cn1cnc(C2CC3CC(O)(c4cc(C(C)(C)C(F)(F)F)nn4C)CC3C2)c1C(=O)Nc1ccc(F)c(Cl)c1` (centres unmarked) [Example 105, N-(3-chloro-4-fluorophenyl)-4-(5-hydroxy-5-(1-methyl-3-(1,1,1-trifluoro-2-methylpropan-2-yl)-1H-pyrazol-5-yl)octahydropentalen-2-yl)-1-methyl-1H-imidazole-5-carboxamide], the EC50 is less than 0.01 µM.

For `CC(C)n1nc([N+](=O)[O-])cc1C1(O)CC2CC(c3ncn(C)c3C(=O)Nc3ccc(F)c(Cl)c3)CC2C1` (centres unmarked) [Example 164, N-(3-Chloro-4-fluorophenyl)-4-(5-hydroxy-5-(1-isopropyl-3-nitro-1H-pyrazol-5-yl)octahydropentalen-2-yl)-1-methyl-1H-imidazole-5-carboxamide], the EC50 was less than 0.01 µM.

Consider `CC(C)n1ncc(C2(O)CC3CC(c4ncn(C)c4C(=O)Nc4ccc(F)c(Cl)c4)CC3C2)c1C(F)(F)F` (centres unmarked) [Example 158, N-(3-Chloro-4-fluorophenyl)-4-(5-hydroxy-5-(1-isopropyl-5-(trifluoromethyl)-1H-pyrazol-4-yl)octahydropentalen-2-yl)-1-methyl-1H-imidazole-5-carboxamide], for which the EC50 is less than 0.01 µM.

Consider `Cn1cnc(C2CC3CC(O)(c4c(C(F)(F)F)cnn4C)CC3C2)c1C(=O)Nc1ccc(F)c(Cl)c1` (centres unmarked) [Example 99, N-(3-chloro-4-fluorophenyl)-4-(5-hydroxy-5-(1-methyl-4-(trifluoromethyl)-1H-pyrazol-5-yl)octahydropentalen-2-yl)-1-methyl-1H-imidazole-5-carboxamide], for which the EC50 is less than 0.01 µM.

On to `Cn1cc(C2(O)CC3CC(c4ncn(C)c4C(=O)Nc4ccc(F)c(Cl)c4)CC3C2)c(C(F)(F)F)n1` (single isomer, unassigned) [Example 114, N-(3-Chloro-4-fluorophenyl)-4-(5-hydroxy-5-(1-methyl-3-(trifluoromethyl)-1H-pyrazol-4-yl)octahydropentalen-2-yl)-1-methyl-1H-imidazole-5-carboxamide], for which the EC50 was less than 0.01 µM.

`COc1cnn(C)c1C1(O)CC2CC(c3ncn(C)c3C(=O)Nc3ccc(F)c(Cl)c3)CC2C1` (centres unmarked) [Example 134, N-(3-chloro-4-fluorophenyl)-4-(5-hydroxy-5-(4-methoxy-1-methyl-1H-pyrazol-5-yl)octahydropentalen-2-yl)-1-methyl-1H-imidazole-5-carboxamide]: the EC50 was less than 0.01 µM.

On to `O=C(Nc1ccc(F)c(Cl)c1)c1scnc1C1CC2CC(O)CC2C1` (centres unmarked) [Example 39, N-(3-Chloro-4-fluorophenyl)-4-(5-hydroxyoctahydropentalen-2-yl)thiazole-5-carboxamide], for which the 50% effective concentration (EC50) is less than 0.01 µM.

For the compound `Cn1cnc(C2CC3CC(O)(c4cc(OCC(C)(O)CO)nn4C)CC3C2)c1C(=O)Nc1ccc(F)c(Cl)c1` (centres unmarked) [Example 218, N-(3-Chloro-4-fluorophenyl)-4-(5-(3-(2,3-dihydroxy-2-methylpropoxy)-1-methyl-1H-pyrazol-5-yl)-5-hydroxyoctahydropentalen-2-yl)-1-methyl-1H-imidazole-5-carboxamide], the EC50 is less than 0.01 µM.

In the case of `CN(C)Cc1cnn(C)c1C1(O)CC2CC(c3ncn(C)c3C(=O)Nc3ccc(F)c(Cl)c3)CC2C1` (single isomer, unassigned) [Example 70, N-(3-Chloro-4-fluorophenyl)-4-(5-(4-((dimethylamino)methyl)-1-methyl-1H-pyrazol-5-yl)-5-hydroxyoctahydropentalen-2-yl)-1-methyl-1H-imidazole-5-carboxamide], the EC50 is less than 0.01 µM.

For `Cn1c(Cl)nc(C2CC3CC(=O)CC3C2)c1C(=O)Nc1ccc(F)c(Cl)c1` (centres unmarked) [Example 21, 2-Chloro-N-(3-chloro-4-fluorophenyl)-1-methyl-4-(5-oxooctahydropentalen-2-yl)-1H-imidazole-5-carboxamide], the EC50 was less than 0.01 µM.

Turning to `Cn1cnc(C2CC3CC(O)(c4[nH]ncc4C(F)(F)F)CC3C2)c1C(=O)Nc1ccc(F)c(Cl)c1` (centres unmarked) [Example 149, N-(3-Chloro-4-fluorophenyl)-4-(5-hydroxy-5-(4-(trifluoromethyl)-1H-pyrazol-5-yl)octahydropentalen-2-yl)-1-methyl-1H-imidazole-5-carboxamide], the EC50 is less than 0.01 µM.

For the compound `CN(C)S(=O)(=O)c1cc(C2(O)CC3CC(c4ncn(C)c4C(=O)Nc4ccc(F)c(Cl)c4)CC3C2)n(C)n1` (centres unmarked) [Example 100, N-(3-chloro-4-fluorophenyl)-4-(5-(3-(N,N-dimethylsulfamoyl)-1-methyl-1H-pyrazol-5-yl)-5-hydroxyoctahydropentalen-2-yl)-1-methyl-1H-imidazole-5-carboxamide], the EC50 is less than 0.01 µM.

In the case of `CC(C)n1cc(Cl)c(C2(O)CC3CC(c4ncn(C)c4C(=O)Nc4ccc(F)c(Cl)c4)CC3C2)n1` (centres unmarked) [Example 154, 4-(5-(4-Chloro-1-isopropyl-1H-pyrazol-3-yl)-5-hydroxyoctahydropentalen-2-yl)-N-(3-chloro-4-fluorophenyl)-1-methyl-1H-imidazole-5-carboxamide], the EC50 is less than 0.01 µM.

For the compound `Cn1c(C#N)nc(C2CC3CC(O)CC3C2)c1C(=O)Nc1ccc(F)c(Cl)c1` (centres unmarked) [Example 42, 5-[-5-Hydroxy-1,2,3,3a,4,5,6,6a-octahydropentalen-2-yl]-N-(3-chloro-4-fluorophenyl)-2-cyano-3-methyl-4-imidazolecarboxamide], the 50% effective concentration (EC50) is 0.01 to 0.05 µM.

On to `Cn1cnc(C2CC3CC(O)(c4ccccc4)CC3C2)c1C(=O)Nc1ccc(F)c(Cl)c1` (centres unmarked) [Example 8, N-(3-Chloro-4-fluorophenyl)-4-(5-hydroxy-5-phenyloctahydropentalen-2-yl)-1-methyl-1H-imidazole-5-carboxamide], for which the 50% effective concentration (EC50) is less than 0.01 µM.

With `Cn1cnc(C2CC3CC(O)(c4cc(C(O)C(F)(F)F)nn4C)CC3C2)c1C(=O)Nc1ccc(F)c(C#N)c1` (centres unmarked) [Example 107, N-(3-Cyano-4-fluorophenyl)-4-(5-hydroxy-5-(1-methyl-3-(2,2,2-trifluoro-1-hydroxyethyl)-1H-pyrazol-5-yl)octahydropentalen-2-yl)-1-methyl-1H-imidazole-5-carboxamide], the EC50 is less than 0.01 µM.

Staying with this experiment, now noted: viral load lowering, 5 days, qPCR of supernatant, read-out: VL HepAD38 EC50 range.
As for `O=C(Nc1ccc(F)c(Cl)c1)c1c(C2CC3CC(O)CC3C2)nc2n1CCC2` (single isomer, unassigned) [Example 33, N-(3-Chloro-4-fluorophenyl)-2-(5-hydroxyoctahydropentalen-2-yl)-6,7-dihydro-5H-pyrrolo[1,2-a]imidazole-3-carboxamide], the EC50 was less than 0.01 µM.

As for `Cn1cnc(C2CC3CC(O)(Cn4cccn4)CC3C2)c1C(=O)Nc1ccc(F)c(Cl)c1` (single isomer, unassigned) [Example 129, 4-(5-((1H-pyrazol-1-yl)methyl)-5-hydroxyoctahydropentalen-2-yl)-N-(3-chloro-4-fluorophenyl)-1-methyl-1H-imidazole-5-carboxamide], the EC50 is 0.01 to 0.05 µM.
